Measured values published in PubChem BioAssay AID248 (DTP/NCI, 2004).
Where “and” joins values, the source holds several entries; their conditions need not be identical. Equal entries are not always repeated. Toxic doses and inconclusive results are not listed. No stated cut-off is given here; in the data, active means T/C of 150% or more; inactive means T/C below 125%.

System: L1210 leukemia ip in BDF1 mice, survival T/C
Assay: NCI In Vivo Anticancer Drug Screen. Data for tumor model L1210 Leukemia (intraperitoneal) in B6D2F1 (BDF1) mice
Details: endpoint: mean survival time, higher = longer survival
Method in brief: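 Read-out is survival time, reported as the treated-group measurement over the vehicle-control measurement.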

[1] = dose: 100.0 mg/kg/injection, schedule: Q04DX002 (ip), vehicle: saline with Tween-80
[2] = dose: 200.0 mg/kg/injection, schedule: Q04DX002 (ip), vehicle: saline with Tween-80
[3] = dose: 400.0 mg/kg/injection, schedule: Q04DX002 (ip), vehicle: saline with Tween-80
[4] = dose: 100.0 mg/kg/injection, schedule: Q01DX009 (ip), vehicle: Klucel (hydroxypropylcellulose) (HPC)
[5] = dose: 100.0 mg/kg/injection, schedule: Q04DX003 (ip), vehicle: Klucel (hydroxypropylcellulose) (HPC)
[6] = dose: 200.0 mg/kg/injection, schedule: Q01DX009 (ip), vehicle: Klucel (hydroxypropylcellulose) (HPC)
[7] = dose: 400.0 mg/kg/injection, schedule: Q01DX009 (ip), vehicle: Klucel (hydroxypropylcellulose) (HPC)
[8] = dose: 100.0 mg/kg/injection, schedule: Q01DX001 (ip), vehicle: saline
[9] = dose: 200.0 mg/kg/injection, schedule: Q01DX001 (ip), vehicle: saline
[10] = dose: 400.0 mg/kg/injection, schedule: Q01DX001 (ip), vehicle: saline

Measured: T/C

CC(NS(=O)(=O)Cc1ccccc1)C(=O)O (configuration not stated)
inactive: dose: 100.0 mg/kg/injection, schedule: Q01DX001 (ip), vehicle: other 96 % of control | dose: 100.0 mg/kg/injection, schedule: Q04DX003 (ip), vehicle: other 107 % of control | dose: 200.0 mg/kg/injection, schedule: Q01DX001 (ip), vehicle: other 95 % of control | dose: 200.0 mg/kg/injection, schedule: Q04DX003 (ip), vehicle: other 96 % of control | dose: 400.0 mg/kg/injection, schedule: Q01DX001 (ip), vehicle: other 104 % of control | dose: 400.0 mg/kg/injection, schedule: Q04DX003 (ip), vehicle: other 106 % of control

C=CCNC(=S)OCC
inactive: [1] 100 % of control | [2] 97 % of control | [3] 103 % of control

NC(=O)N(Cc1ccccc1)N=O
inactive: dose: 6.25 mg/kg/injection, schedule: Q01DX Z (ip), vehicle: carboxymethylcellulose (CMC) 101 % of control | dose: 12.5 mg/kg/injection, schedule: Q01DX Z (ip), vehicle: carboxymethylcellulose (CMC) 116 % of control | dose: 25.0 mg/kg/injection, schedule: Q01DX Z (ip), vehicle: carboxymethylcellulose (CMC) 104 % of control | dose: 50.0 mg/kg/injection, schedule: Q01DX Z (ip), vehicle: carboxymethylcellulose (CMC) 110 % of control | dose: 100.0 mg/kg/injection, schedule: Q01DX Z (ip), vehicle: carboxymethylcellulose (CMC) 116 % of control

Cc1ccc(C(C)C)c(Oc2cc(C)ccc2C(C)C)c1
inactive: [4] 98 % of control | [5] 97 % of control | [6] 102 % of control | dose: 200.0 mg/kg/injection, schedule: Q04DX003 (ip), vehicle: Klucel (hydroxypropylcellulose) (HPC) 93 % of control | [7] 108 % of control | dose: 400.0 mg/kg/injection, schedule: Q04DX003 (ip), vehicle: Klucel (hydroxypropylcellulose) (HPC) 93 % of control

OC[P+](CO)(CO)CO
inactive: dose: 25.0 mg/kg/injection, schedule: Q04DX002 (ip), vehicle: saline 113 % of control | dose: 50.0 mg/kg/injection, schedule: Q04DX002 (ip), vehicle: saline 103 % of control | dose: 100.0 mg/kg/injection, schedule: Q04DX002 (ip), vehicle: saline 100 % of control and 109 % of control

CCCCOc1ccc(Nc2c3ccccc3nc3ccccc23)cc1
inactive: [5] 123 % of control

Cc1nc2ccccc2c(C(=O)O)c1C
inactive: dose: 100.0 mg/kg/injection, schedule: Q04DX003 (ip), vehicle: saline 102 % of control | dose: 200.0 mg/kg/injection, schedule: Q04DX003 (ip), vehicle: saline 96 % of control | dose: 400.0 mg/kg/injection, schedule: Q04DX003 (ip), vehicle: saline 96 % of control

CC(C)c1nc2c(=O)[nH]cnc2o1
inactive: dose: 25.0 mg/kg/injection, schedule: Q01DX005 (ip), vehicle: saline 105 % of control | dose: 50.0 mg/kg/injection, schedule: Q01DX005 (ip), vehicle: saline 107 % of control | dose: 100.0 mg/kg/injection, schedule: Q01DX005 (ip), vehicle: saline 95 % of control and 102 % of control | dose: 200.0 mg/kg/injection, schedule: Q01DX005 (ip), vehicle: saline 100 % of control

c1ccc(C2CC2NC2=NCCO2)cc1 (configuration not stated)
inactive: dose: 12.5 mg/kg/injection, schedule: Q04DX002 (ip), vehicle: saline with Tween-80 104 % of control | dose: 25.0 mg/kg/injection, schedule: Q04DX002 (ip), vehicle: saline with Tween-80 101 % of control | dose: 50.0 mg/kg/injection, schedule: Q04DX002 (ip), vehicle: saline with Tween-80 96 % of control | [1] 93 % of control

Cc1ccc(S(=O)(=O)NNC(=O)c2cc(C)c(C)cc2N)cc1
inactive: [8] 97 % of control | [9] 101 % of control | [10] 95 % of control

COC(=O)C1=C(\O)CCCC/C=C\1C(=O)OC
inactive: dose: 100.0 mg/kg/injection, schedule: Q04DX002 (ip), vehicle: Klucel (hydroxypropylcellulose) (HPC) 87 % of control | dose: 200.0 mg/kg/injection, schedule: Q04DX002 (ip), vehicle: Klucel (hydroxypropylcellulose) (HPC) 97 % of control | dose: 400.0 mg/kg/injection, schedule: Q04DX002 (ip), vehicle: Klucel (hydroxypropylcellulose) (HPC) 107 % of control

O=C(Nc1cccc(F)c1)Nc1ccccc1Cl
inactive: [4] 105 % of control | [6] 97 % of control | [7] 95 % of control

Cc1ccccc1S(=O)(=O)CC(Cl)c1ccccc1 (configuration not stated)
inactive: [8] 102 % of control | dose: 100.0 mg/kg/injection, schedule: Q01DX009 (ip), vehicle: saline 93 % of control | [9] 102 % of control | dose: 200.0 mg/kg/injection, schedule: Q01DX009 (ip), vehicle: saline 91 % of control | [10] 107 % of control | dose: 400.0 mg/kg/injection, schedule: Q01DX009 (ip), vehicle: saline 91 % of control

Clc1ccc2nc3nc(-c4ccccc4)c(-c4ccccc4)nc3nc2c1
inactive: dose: 75.0 mg/kg/injection, schedule: Q01DX001 (ip), vehicle: other 98 % of control | dose: 150.0 mg/kg/injection, schedule: Q01DX001 (ip), vehicle: other 98 % of control | dose: 300.0 mg/kg/injection, schedule: Q01DX001 (ip), vehicle: other 96 % of control

CCOC(=O)C(C(=O)OCC)C(=O)c1cccc2c1ccc1ccccc12
inactive: [1] 95 % of control | [2] 107 % of control | [3] 100 % of control

O=c1c2ccc(Cl)cc2[nH]c(=S)n1-c1ccc(Cl)cc1
inactive: dose: 100.0 mg/kg/injection, schedule: Q01DX009 (ip), vehicle: saline with Tween-80 89 % of control | dose: 200.0 mg/kg/injection, schedule: Q01DX009 (ip), vehicle: saline with Tween-80 89 % of control | dose: 400.0 mg/kg/injection, schedule: Q01DX009 (ip), vehicle: saline with Tween-80 87 % of control

CCC[CH2][Pb]([CH2]CCC)([CH2]CCC)[O]C(=O)CCl
inactive: dose: 1.56 mg/kg/injection, schedule: Q01DX009 (ip), vehicle: Klucel (hydroxypropylcellulose) (HPC) 98 % of control | dose: 3.13 mg/kg/injection, schedule: Q01DX009 (ip), vehicle: Klucel (hydroxypropylcellulose) (HPC) 104 % of control | dose: 6.25 mg/kg/injection, schedule: Q01DX009 (ip), vehicle: Klucel (hydroxypropylcellulose) (HPC) 94 % of control and 98 % of control | dose: 12.5 mg/kg/injection, schedule: Q04DX003 (ip), vehicle: Klucel (hydroxypropylcellulose) (HPC) 101 % of control | dose: 25.0 mg/kg/injection, schedule: Q04DX003 (ip), vehicle: Klucel (hydroxypropylcellulose) (HPC) 100 % of control

Cc1[nH]nc(C(=O)N(C)C)c1N=NN(C)C
inactive: dose: 75.0 mg/kg/injection, schedule: Q01DX001 (ip), vehicle: saline 116 % of control

CN(C)CCCOS(C)(=O)=O
inactive: [1] 105 % of control | [2] 99 % of control

C(Cc1ccccc1)=C1SCCCS1
inactive: dose: 100.0 mg/kg/injection, schedule: Q04DX003 (ip), vehicle: saline with Tween-80 99 % of control | dose: 200.0 mg/kg/injection, schedule: Q04DX003 (ip), vehicle: saline with Tween-80 96 % of control | dose: 400.0 mg/kg/injection, schedule: Q04DX003 (ip), vehicle: saline with Tween-80 96 % of control

O=C(O)C1CC/C=C\CCC1 (configuration not stated)
inactive: dose: 100.0 mg/kg/injection, schedule: Q01DX009 (sc), vehicle: olive oil, sesame oil, peanut oil 99 % of control | dose: 100.0 mg/kg/injection, schedule: Q04DX003 (sc), vehicle: olive oil, sesame oil, peanut oil 109 % of control | dose: 200.0 mg/kg/injection, schedule: Q01DX009 (sc), vehicle: olive oil, sesame oil, peanut oil 89 % of control | dose: 200.0 mg/kg/injection, schedule: Q04DX003 (sc), vehicle: olive oil, sesame oil, peanut oil 106 % of control | dose: 400.0 mg/kg/injection, schedule: Q01DX009 (sc), vehicle: olive oil, sesame oil, peanut oil 88 % of control | dose: 400.0 mg/kg/injection, schedule: Q04DX003 (sc), vehicle: olive oil, sesame oil, peanut oil 97 % of control

CSc1cc2c(cc1N)Cc1ccccc1-2
inactive: dose: 100.0 mg/kg/injection, schedule: Q01DX001 (ip), vehicle: carboxymethylcellulose (CMC) 98 % of control | dose: 200.0 mg/kg/injection, schedule: Q01DX001 (ip), vehicle: carboxymethylcellulose (CMC) 104 % of control | dose: 400.0 mg/kg/injection, schedule: Q01DX001 (ip), vehicle: carboxymethylcellulose (CMC) 115 % of control

CC(=O)n1cc(C=C2C(=O)CC(C)(C)CC2=O)c2ccccc21
inactive: dose: 37.5 mg/kg/injection, schedule: Q01DX009 (ip), vehicle: Klucel (hydroxypropylcellulose) (HPC) 89 % of control | dose: 75.0 mg/kg/injection, schedule: Q01DX009 (ip), vehicle: Klucel (hydroxypropylcellulose) (HPC) 95 % of control | dose: 150.0 mg/kg/injection, schedule: Q01DX009 (ip), vehicle: Klucel (hydroxypropylcellulose) (HPC) 98 % of control
